Measured values as given in patent US20050075398A1, “Neuroprotectin D1 protects against cellular apoptosis, stroke damage, alzheimer's disease and retinal diseases” (priority 2003, published 2005).
Entries after “also recorded” stand apart in the source; their conditions may differ.

How the values were obtained:
[1] = tested on: ARPE-19 cells; experiment: Hoechst staining, TNFα/H2O2 oxidative stress-induced apoptosis; type: cell-based, human
Method: ARPE-19 cell culture and chemicals: ARPE-19 cells (L. M. Hjelmeland, ATCC # CRL-2302) were grown and maintained in DMEM-F12 medium supplemented with 10% FBS and incubated at 37° C. with a constant supply of 5% CO2. ARPE-19 cells are spontaneously transformed human retinal pigment epithelial cells that conserve cellular biological and functional properties. All chemicals were purchased from Sigma Chemical Co. (St. Louis, Mo.) unless otherwise indicated.
Hoechst staining: ARPE-19 cells were loaded with 2 μM Hoechst dissolved in a Locke's solution (Promega, Madison, Wis.) and incubated one h at 37° C. before imaging. Cells were then washed once with PBS and viewed using a Nikon DIAPHOT 200 microscope under UV fluorescence. Images were recorded by a Hamamatsu Color Chilled 3CCD camera and Photoshop 5.0 software, as described in Mukherjee, P. K., DeCoster, M. A., Campbell, F. Z., Davis, R. J. & Bazan, N. G. (1999) J. Biol. Chem. 274:6493-6498.
Several experimental conditions that result in reproducible oxidative-stress-induced apoptosis in ARPE-19 cells were tested. One condition chosen was the combination of TNFα with H2O2, both in relatively low concentrations. Typically 10 ng/ml of TNFα and 400-800 μM H2O2 led to marked increase in Hoechst-positive cells (Data not shown). Neither TNFα nor H2O2 alone triggered a significant effect under these conditions. (Data not shown).
Serum starvation made ARPE-19 cells more sensitive to oxidative stress-triggered apoptosis induced by TNFα/H2O2. Cells were grown in culture for 72 h in the presence of BSA (3.35 μM) with or without DHA (6.7 μM). Endogenous NPD1 formation was enhanced by BSA-DHA (FIG. 12A).
In the next experiment, confluent cells were starved for 8 h, then TNFα/H2O2 was added and incubated for 14 h before staining with Hoechst reagent. NPD1 (50 nM) was added at the time of adding TNFα/H2O2. […] When the TNFα concentration (10 ng/ml) was maintained and H2O2 concentration was decreased from 800 to 400 μM, fewer Hoechst-positive cells were seen. […] (Data not shown).

[2] = tested on: ARPE-19 cells; experiment: DNA fragmentation by differential sedimentation after 3H-thymidine labeling; type: cell-based, human; conditions: 50 nM; TNF-α 10 ng and H2O2 800 μM for 6-8 h
Method: DNA fragmentation assay: Cells (80% confluent) growing in DMEM (10% FBS) in 6-well plates were labeled with 1 μCi ^3H-thymidine per well for 24 h at 37° C. The day-old medium was replaced to remove the unincorporated ^3H-thymidine. Cells were then serum-starved for 1 h and treated with TNFα plus H2O2 for 6-8 h. Cells were harvested, centrifuged at 200×g for 10 min at 4° C. An aliquot of the supernatant was precipitated with 25% TCA, and radioactivity was measured. This represents the amount of ^3H-thymidine released during the oxidative stress induced by TNFα plus H2O2 The cell pellet was solubilized in lysis buffer (0.2% Triton X-100 in 10 mM Tris/EDTA). The intact DNA and fragmented DNA were separated by centrifugation at 13,000×g for 10 min at 4° C. Fragmented DNA was precipitated from the supernatant with 25% TCA. The pellets were resuspended in 1% SDS and radioactivity was measured. This represents the intact DNA in the cells. The amount of DNA fragmentation is expressed as percentage of fragmented DNA over the control, as described in Kim, H. Y., Akbar, M., Lau, A. & Edsall, L. (2000) J. Biol. Chem. 275:35215-35223.
These observations indicate that oxidative stress triggered DNA fragmentation and RPE apoptosis, and that the increase in NPD1 inhibited RPE cell death. […] DNA fragmentation was evaluated after TCA precipitation and expressed as percentage over intact DNA. […]

[3] = tested on: infarcted volume (stroke volume); experiment: Stroke volume by TTC staining after MCA-O; type: in vivo, mouse
Method: Assessment of stroke volume. Forty-eight hours after MCA-O, mice were killed, and brains were dissected and immersed in ice-cold saline. The dissected brains were embedded in agar blocks and sectioned into coronal slices 1 mm thick by a vibratome (Vibratome Co. St. Louis, Mo.). Sections were incubated at room temperature in a 3% buffered solution of 2,3,5,-triphenyltetrazolium chloride (TTC). Once color developed (10 to 15 min), sections were fixed in 10% buffered formalin, and kept at 4° C. until images were recorded by a camera (Cool-snap, Nikon) mounted to a dissecting microscope. In the digital images, total brain area and stroke areas were analyzed and calculated by Adobe Photoshop software. Serial sections were made for all animals. (Digital images not included).
To test for in vivo bioactivity of 10,17S-docosatriene (NPD1) in brain during focal ischemic stroke, Alzet mini-pumps were implanted into the third ventricle to deliver the lipid messenger over the 48 h reperfusion following 1 h of MCA-O. Brain coronal sections were incubated at room temperature in 3% buffered TTC (triphenyltetrazolium chloride) for approximately 10-15 min. The docosanoid 10,17S-docosatriene (NPD1) was infused (1 μg over 48 h by implanted Alzet mini-pumps). In photos, colorless areas indicated mitochondrial damage reflecting the inability to metabolize TTC. […]

[4] = tested on: polymorphonuclear leukocyte infiltration; experiment: Zymosan-induced peritonitis, leukocyte infiltration; type: in vivo, mouse; conditions: 100 ng i.v. bolus 1.5 min before Zymosan A; lavage at 2 h
Method: The inhibition of leukocyte infiltration in zymosan-induced peritonitis by 4,17S-diHDHA and 10,17S-docosatriene (NPD1) was tested. […] Peritonitis was induced in 6- to 8-week-old male FVB mice (Charles River Laboratories) by peritoneal injection of 1 mg Zymosan A. The compounds 4,17S- and 10,17S-diHDHA were injected by intravenous bolus injection, 1.5 minutes before Zymosan A treatment. Two hours after induction of peritonitis, rapid peritoneal lavages were collected, and cell type enumeration was performed.

CC/C=C\C[C@H](O)\C=C/C=C/C=C/[C@H](O)C/C=C\C/C=C\CCC(=O)O [NPD1, 10,17S-docosatriene]
inhibition of oxidative stress (TNFα/H2O2)-induced Hoechst-positive cells / apoptosis ([1]; 50 nM added with TNFα 10 ng/ml plus H2O2 (400-800 μM), 14 h): inhibition; also recorded: inhibited apoptosis | inhibition of oxidative stress caused by the lower H2O2 concentration ([1]; 50 nM, TNFα 10 ng/ml plus H2O2 400 μM): almost completely inhibited | effect on DNA fragmentation (3H-thymidine) [2]: inhibited | reduction of stroke volume ([3]; 1 μg over 48 h at 250 nl/h intracerebroventricular, after 48 h): 50% | focal infarcted volume, percentage of total volume ([3]; 1 μg over 48 h by Alzet mini-pump into third ventricle, 1 h MCA-O, 48 h reperfusion, vehicle about 30%): less than 15% | inhibition of leukocyte infiltration [4]: potent inhibition
